Reference: paper PMC10653080, “Intermolecular Interactions, Solute Descriptors, and Partition Properties of Neutral Per- and Polyfluoroalkyl Substances (PFAS)” (Environmental Science & Technology, 2023)
Values joined by “and” are separate entries in the source; they are usually repeats but may differ in a detail not shown here. Equal values may be shown once. Read-outs that look alike come from different tables or passages of the source.

Tests used:
[1] = Octanol/water partition coefficient (Kow), shared-headspace method; assay type: physicochemical; conditions: 25 °C; shared-headspace method (SH)
Procedure: Kow was measured for nine PFAS (Table 2) to supplement the data set for descriptor determination. The nine PFAS were selected based on measurement feasibility and structural diversity. The shared-headspace or batch partition method was used as described previously.[5] Details of the methods are given in SI-1.

[2] = PP-LFER solute descriptor determination from GC retention and partition coefficient data; assay type: physicochemical; conditions: for Solute descriptor S (dipolarity/polarizability parameter): final adjusted value, shared within a PFAS group
From the text: The GC columns used were, from low to high polarity, HP-5ms Ultra Inert (poly[5% phenyl/95% methyl]siloxane equivalent; Agilent Technologies, Santa Clara, CA), DB-200 (poly[35% trifluoropropyl/65% methyl]siloxane; Agilent Technologies), DB-225ms (poly[50% cyanopropylphenyl/50% methyl]siloxane equivalent; Agilent Technologies), and SolGel-WAX (polyethylene glycol; Trajan, Ringwood, Australia). Column dimensions were all 30 m × 0.25 mm i.d. with a coating thickness of 0.25 μm.
The method for GC retention time measurements follows that of a previous study.[18] Briefly, a 7890A/5975C GC/MS instrument (Agilent Technologies) equipped with an MPS2 autosampler and CIS4 injector (Gerstel, Mülheim an der Ruhr, Germany) was used for all measurements. For each column, isothermal retention times were measured at four temperatures in the range of 30–120 °C to cover all target compounds. The temperature at the injector and transfer line was fixed at 120 °C. The carrier gas was He at a flow rate of 1.2 mL/min. Compounds were introduced into the GC by injecting either headspace (100–250 μL) above the pure compound or solution in acetone (1 μL). Split injections were performed with a split ratio of 20–250. Column dead time (t0) was determined by injecting air and measuring Ar (m/z 40). From the measured retention time (t), the retention factor (k) was calculated as k = (t–t0)/t0. Measurements with t < t0 + 0.1 min were considered too short and discarded. For each column and temperature, k values were obtained for 29–52 PFAS and 29–48 reference compounds.
The standard procedure for solute descriptor determination was as follows. First, the system parameters in eq 1 were calibrated for each column (or partition system) and temperature by MLR using log k (or log K) data and solute descriptors for reference compounds. Dimethylformamide, 1-pentylamine, dimethylsulfoxide, and dodecamethylcyclohexasiloxane (D6) were removed from the log k data sets, because they frequently appeared as outliers (>3 SD) of the PP-LFER model fit. Reference data sets for hexadecane/water partition coefficients (KHxd/w),[21]Kow,[22] and octanol/air partition coefficients (Koa)[23] were taken from the cited references and amended with data for organosilicon compounds.[24],[25] Similar to PFAS, organosilicon compounds have weak van der Waals interaction properties[9] and it may be beneficial to include them in reference data sets. The solute descriptors for PFAS were then back-calculated by using the calibrated PP-LFER equations. Of the five descriptors, V can be calculated from the molecular structure[26] (note: the fragment value for F from Goss et al.[11] was used), and L was available for the PFAS studied.[18] Thus, the left side of eq 2 was known, and MLR was performed to obtain S, A, and B on the right side. [drawing 2] 2 To determine the three descriptors, a minimum of three k and K data are required for a given PFAS compound. The data used here were: k measured for 60 PFAS in this study, KHxd/w for 21 PFAS,[5]Kow for 12 PFAS (see the Results and Discussion section), and Koa for 3 PFAS.[11]
Key to the accurate determination of the polar interaction descriptors is the availability of K data for partition systems with water as a partition phase because water is a strong H-bond donor and acceptor phase and thus the corresponding K values are sensitive to the H-bonding properties of the solute.[27] In particular, at least one solvent/water or air/water partition coefficient is required to determine B because there is no commonly used GC phase that is a significant H-bond donor. In the data set, KHxd/w is sensitive to both A and B and Kow is sensitive to B. However, KHxd/w and Kow data are not available for all PFAS. To increase the number of PFAS for which descriptors can be determined, the following assumptions were made. […]

[3] = 25 °C, updated in the iterative calculation
[4] = difference of descriptor values

| Structure (SMILES) | Measured Log Kow, Mean ± SD [1] | Solute descriptor L (logarithmic hexadecane/air partition coefficient, KHxd/air) [2, 3] | Solute descriptor S (dipolarity/polarizability parameter) [2] | Solute descriptor L (logarithmic hexadecane/air partition coefficient, KHxd/air) [2] | A value higher than perfluorinated counterpart, perfluorooctane [2, 4] | L value higher than perfluorinated counterpart, perfluorooctane [2, 4] |
| --- | --- | --- | --- | --- | --- | --- |
| FC(F)(F)C(F)(F)C(F)(F)C(F)(F)C(F)(F)C(F)(F)CI [6:1 FTI, 1H,1H-Perfluoroheptyl iodide] | 5.57 ± 0.01 | 3.382 and 3.38 | 0.27 and 0.27 ± 0.02 | – | – | – |
| CC(O)C(F)(F)C(F)(F)C(F)(F)C(F)(F)C(F)(F)F (stereo not shown) [5:2s FTOH, 1H,1H,1H,2H-Perfluoroheptan-2-ol] | 3.80 ± 0.03 | 2.296 | 0.39 and 0.39 ± 0.02 | – | – | – |
| OCCCC(F)(F)C(F)(F)C(F)(F)F [3:3 FTOH, 4,4,5,5,6,6,6-Heptafluorohexan-1-ol] | 2.46 ± 0.00 | 2.710 | 0.53 | – | – | – |
| CC(=O)OCCC(F)(F)C(F)(F)C(F)(F)C(F)(F)C(F)(F)C(F)(F)C(F)(F)C(F)(F)F [8:2 FTAce, 1H,1H,2H,2H-Perfluorodecyl acetate] | – | – | 0.54 | 4.234 | – | – |
| CCN(CCO)S(=O)(=O)C(F)(F)C(F)(F)C(F)(F)C(F)(F)C(F)(F)C(F)(F)C(F)(F)C(F)(F)F [EtFOSE, N-Ethylperfluorooctanesulfonamidoethanol] | – | – | 1.00 | 6.253 | – | – |
| OCCC(F)(F)C(F)(F)C(F)(F)C(F)(F)C(F)(F)C(F)(F)C(F)(F)C(F)(F)C(F)(F)C(F)(F)C(F)(F)C(F)(F)F [12:2 FTOH, 1H,1H,2H,2H-Perfluorotetradecan-1-ol] | – | – | 0.35 | 4.682 | – | – |
| CCNS(=O)(=O)C(F)(F)C(F)(F)C(F)(F)C(F)(F)C(F)(F)C(F)(F)C(F)(F)C(F)(F)F [EtFOSA, N-Ethylperfluorooctanesulfonamide] | – | – | 0.88 | 4.967 | – | – |
| FC(F)C(F)(F)C(F)(F)C(F)(F)C(F)(F)C(F)(F)C(F)(F)C(F)F [1,8-DHPFO, 1H,8H-Perfluorooctane] | – | 2.130 | 0.38 | – | 0.24 | 0.78 |
| C=CC(F)(F)C(F)(F)C(F)(F)C(F)(F)C(F)(F)C(F)(F)F [6:2 FTO, 1H,1H,2H-Perfluoro-1-octene] | – | 2.022 | 0.11 | – | – | – |
| FC(F)(F)C(F)(F)C(F)(F)N(C(F)(F)C(F)(F)C(F)(F)F)C(F)(F)C(F)(F)C(F)(F)F [PFTPrA, Perfluorotripropyl amine] | – | 1.521 | -0.26 | – | – | – |
| NS(=O)(=O)C(F)(F)C(F)(F)C(F)(F)C(F)(F)C(F)(F)C(F)(F)F [PFHxSA, Perfluorohexanesulfonamide] | – | 4.189 | 0.96 | – | – | – |
| FC(F)(F)C(F)(F)C(F)(F)C(F)(F)N(C(F)(F)C(F)(F)C(F)(F)C(F)(F)F)C(F)(F)C(F)(F)C(F)(F)C(F)(F)F [PFTBA, Perfluorotributyl amine] | – | 2.302 | -0.23 | – | – | – |
| C=C(C)C(=O)OCCC(F)(F)C(F)(F)C(F)(F)C(F)(F)F [4:2 FTMAC, 1H,1H,2H,2H-Perfluorohexyl methacrylate] | – | 3.990 | 0.53 | – | – | – |
| OCCCCC(F)(F)C(F)(F)C(F)(F)C(F)(F)F [4:4 FTOH, 5,5,6,6,7,7,8,8,8-Nonafluorooctan-1-ol] | 3.54 ± 0.00 | 3.499 | 0.52 | – | – | – |
| C=CC(F)(F)C(F)(F)C(F)(F)C(F)(F)F [4:2 FTO, 1H,1H,2H-Perfluoro-1-hexene] | – | 1.451 | 0.11 | – | – | – |
| CCN(CCO)S(=O)(=O)C(F)(F)C(F)(F)C(F)(F)C(F)(F)C(F)(F)C(F)(F)F [EtFHxSE, N-Ethylperfluorohexanesulfonamidoethanol] | – | 5.685 | 1.00 | – | – | – |
| C=C(C)C(=O)OCCC(F)(F)C(F)(F)C(F)(F)C(F)(F)C(F)(F)C(F)(F)C(F)(F)C(F)(F)F [8:2 FTMAC, 1H,1H,2H,2H-Perfluorodecyl methacrylate] | – | – | 0.53 | 5.115 | – | – |
| FC(F)(F)C(F)(F)C(F)(F)C(F)(F)C(F)(F)C(F)(F)C(F)(F)I [PFHpI, Perfluoroheptyl iodide] | – | 2.792 | 0.07 | – | – | – |
| FC(F)C(F)(F)C(F)(F)C(F)(F)C(F)(F)C(F)(F)CI [6:1 FTI-7H, 1H,1H,7H-Perfluoroheptyl iodide] | 4.90 ± 0.01 | 3.887 and 3.89 | 0.63 and 0.63 ± 0.04 | – | – | – |
| C=CC(=O)OCCC(F)(F)C(F)(F)C(F)(F)C(F)(F)C(F)(F)C(F)(F)F [6:2 FTAC, 1H,1H,2H,2H-Perfluorooctyl acrylate] | – | 4.098 | 0.54 | – | – | – |
| OCC(F)(F)C(F)(F)C(F)(F)F [3:1 FTOH, 1H,1H-Perfluorobutan-1-ol] | – | 1.542 | 0.30 | – | – | – |
| CCNS(=O)(=O)C(F)(F)C(F)(F)C(F)(F)C(F)(F)C(F)(F)C(F)(F)F [EtFHxSA, N-Ethylperfluorohexanesulfonamide] | – | 4.400 | 0.88 | – | – | – |
| FC(F)(F)C(F)(F)C(F)(F)C(F)(F)CCI [4:2 FTI, 1H,1H,2H,2H-Perfluorohexyl iodide] | – | 3.325 | 0.32 | – | – | – |
| OCCC(F)(F)C(F)(F)C(F)(F)C(F)(F)C(F)(F)C(F)(F)C(F)(F)C(F)(F)C(F)(F)C(F)(F)F [10:2 FTOH, 1H,1H,2H,2H-Perfluorododecan-1-ol] | – | – | 0.35 | 4.117 | – | – |
| FC(F)(F)C(F)(F)C(F)(F)C(F)(F)C(F)(F)C(F)(F)C(F)(F)C(F)(F)I [PFOI, Perfluorooctyl iodide] | – | 3.068 | 0.07 | – | – | – |
| FC(F)(F)C(F)(F)C(F)(F)C(F)(F)C(F)(F)C(F)(F)C(F)(F)C(F)(F)C(F)(F)F [PFN, Perfluorononane] | – | 1.571 | -0.19 | – | – | – |
| FC(F)(F)C(F)(F)C(F)(F)C(F)(F)C(F)(F)C(F)(F)C(F)(F)C(F)(F)CCI [8:2 FTI, 1H,1H,2H,2H-Perfluorodecyl iodide] | – | 4.455 | 0.32 | – | – | – |
